Test results reported in patent publication US10512656B2, “Compositions and methods for the treatment of lysosomal storage disorders and disorders characterized by lysosomal dysfunction” (Baylor College of Medicine, priority 2016, dated 2019).

Experiments:
[1] = system: lysosomal and autophagy genes; experiment: Expression analysis of lysosomal and autophagy genes in HeLa cells; type: cell-based, human; conditions: HeLa cells treated with MK2206
Description: FIG. 24. […] (b) Immunoblot analysis of LC3 lipidation. […] (d) Expression analysis of lysosomal and autophagy genes in HeLa cells treated with MK2206. Gene expression was normalized relative to the housekeeping gene, GAPDH. The dashed line indicates relative gene expression in untreated cells. […] Scale bar, 10 μm (a), 50 nm (c) and 20 μm (f).
Control (Coriell Institute, USA) and JNCL fibroblasts (Gaslini Institute, Italy) were grown in DMEM (1:1, HyClone) supplemented with 10% heat-inactivated fetal bovine serum (FBS, Atlanta Biologicals), 2 mM L-glutamine, 100 U/ml penicillin and […] streptomycin (Invitrogen). […]
Total RNA was extracted from the control and JNCL fibroblasts and from WT and Cln3^Δex7-8 cortical neuron cultures using the RNEasy kit (Qiagen) according to the manufacturer's instructions. Half of the mouse brain was processed for the RNA extraction and one microgram was used for complementary DNA synthesis by QuantiTect Reverse Transcription kit (Qiagen). The primers for PCR with reverse transcription reactions are listed in Table St Quantitative real-time PCR was performed by using iQ SYBR Green Supermix on the CFX96 Touch Real-Time Detection System (Bio-Rad Laboratories). […] Relative gene expression was determined using the ΔΔCT method, normalizing to GAPDH (for human genes) and cyclophilin (for mouse genes). […]

TFEB = TFEB nuclear translocation in HeLa/TFEB cells; type: cell-based, human
Description: Control (Coriell Institute, USA) and JNCL fibroblasts (Gaslini Institute, Italy) were grown in DMEM (1:1, HyClone) supplemented with 10% heat-inactivated fetal bovine serum (FBS, Atlanta Biologicals), 2 mM L-glutamine, 100 U/ml penicillin and […] streptomycin (Invitrogen). HeLa cells were incubated for 2 h with LY294002 ([…], Cell Signaling), Torin 1 (300 nM, Cayman Chemical) or for 24 h with trehalose (100 mM, Sigma), rapamycin (300 nM, Sigma), MK2206 (1 μM, Selleckchem), U0126 ([…], Tocris) and dialyzed serum (GE Healthcare Life Sciences) for 30 min. For immunofluorescence assay, cells were grown on coverslips in 24-well plates. After the treatment, cells were washed with PBS and fixed with methanol for 10 min. Cells were then blocked with blocking reagent (0.1% saponin, 10% bovine serum in PBS) for 1 h and incubated with appropriate primary antibody(s) (1:100) for 3 h at room temperature. After three washes with PBS, the cells were incubated with appropriate secondary antibodies (1:500) for 1 h at room temperature. Coverslips were then mounted with vectashield containing 4,6-diamidino-2-phenylindole (H-1200) for imaging via confocal microscopy. Cell pellets were resuspended in lysis buffer (10 mM Hepes pH 7.9, 10 mM KCl, 0.1 mM EDTA and 0.4% Nonidet P40) with inhibitors by pipetting and kept in ice for 30 min. After 1 min of spin at full speed, the supernatant was collected as cytosolic fraction. The pellet was washed twice with lysis buffer and resuspended with nuclear buffer (20 mM Hepes pH 7.9, 0.4M NaCl and 1 mM EDTA) containing phosphatases and proteases inhibitors. After 15 min of vigorous shaking on an Eppendorf shaker, the pellet was spun down at full speed for 10 min. The supernatant was used as the nuclear fraction.

[2] = humans, oral; cited from earlier work
Cln3^Δex7-8 mice [3] = experiment: Life span assessment, oral trehalose; type: in vivo, mouse
Description: Cln3^Δex7-8 mice (stock no. 004685; Cln3^tm1.1Mem/J; CD-1 background)^32 were obtained from the Jackson Laboratory. Control (CD-1) and Cln3^Δex7-8 mice were housed 3-4 per cage in a room with a 12-h light/12-h dark cycle. Food and water were provided ad libitum. All mice used in this study were analyzed at 8 and 12 months of age and were littermates produced by crossing heterozygous Cln3^Δex7-8 mice. Only males were used for this analysis. Investigators were blinded when analyzing the data, and no randomization was necessary. No data were excluded from this study.
Trehalose (Swanson) was dissolved in drinking water to a final concentration of 2% and changed twice a week. Trehalose-containing water was given to Cln3^Δex7-8 and WT mice by spontaneous oral administration starting at 21 days of age and continuing until the day the mice died naturally (life span assessment) or were sacrificed for other studies.

Cln3^Δex7-8 mice [4] = experiment: Astrocytosis, GFAP immunohistochemistry; type: in vivo, mouse; conditions: for decrease of GFAP immunoreactivity: 12 months of age
Description: Brains were subsequently removed and postfixed overnight. Before sectioning, the brains were cryoprotected in a solution containing 30% sucrose in Tris-buffered saline (TBS: 50 mM Tris, pH 7.6). Consecutive […] floating coronal sections were collected in 96-well plates. Series of sections were then stained with primary antisera against CD68 or GFAP, followed by either rabbit anti-rat (VectorLab) and swine anti-rabbit (DAKO) secondary antibodies, and immunoreactivity detected with Vectastain ABC (avidin-biotin) kit (Vector) and diaminobenzidine as a chromogen.
Thirty non-overlapping images were captured, on three consecutive sections, through each region of interest. All RGB images were captured via a live video camera (JVC, 3CCD, KY-F55B), mounted onto a Zeiss Axioplan microscope using a ×40 objective and saved as JPEGs. All parameters including lamp intensity, video camera set-up and calibration were maintained constant throughout image capturing. Images were subsequently analysed using ImageJ analysis software (NIH), using an appropriate threshold that selected the foreground immunoreactivity above background. This threshold was then applied as a constant to all subsequent images analysed per batch of animals and reagent used to determine the specific area of immunoreactivity for each antigen in each region. This analysis was performed blind to genotype. Data were plotted graphically as the mean percentage area of immunoreactivity per field±s.e.m. for each region.

| SMILES | expression of lysosomal and autophagy genes [1] | TFEB nuclear translocation on kinase inhibitors (TFEB; confocal microscopy and subcellular fractionation) | cells with nuclear TFEB (TFEB; trehalose within 24 h, untreated 20%) [%] | ingested trehalose absorbed into the blood stream [2] | median survival (Cln3^Δex7-8 mice [3]; Cln3^Δex7-8 mice, 2% trehalose in drinking water from 21 days of age, untreated 454 days) [days] | maximum life span (Cln3^Δex7-8 mice [3]; Cln3^Δex7-8 mice, oral trehalose, untreated 544 days) [days] | increase of maximum life span (Cln3^Δex7-8 mice [3]; treated vs untreated Cln3^Δex7-8 mice) [%] | increase of median survival (Cln3^Δex7-8 mice [3]; treated vs untreated Cln3^Δex7-8 mice, log-rank P=0.00566) [%] | progressive neuroinflammation (GFAP and CD68 immunoreactivity) (Cln3^Δex7-8 mice [4]; S1BF and VPM/VPL, 7 and 12 months of age) | decrease of GFAP immunoreactivity (Cln3^Δex7-8 mice [4]; S1BF region) [%] | decrease of GFAP immunoreactivity (Cln3^Δex7-8 mice [4]; VPM/VPL region) [%] |
| --- | --- | --- | --- | --- | --- | --- | --- | --- | --- | --- | --- |
| Cl.NC1(c2ccc(-c3nc4ccn5c(=O)[nH]nc5c4cc3-c3ccccc3)cc2)CCC1 [MK2206, 8-[4-(1-aminocyclobutyl)phenyl]-9-phenyl-1,2,4-triazolo[3,4-f][1,6]naphthyridin-3(2H)-one] | upregulated the expression of lysosomal and autophagy genes | nuclear translocation of TFEB | – | – | – | – | – | – | – | – | – |
| OC[C@H]1O[C@H](O[C@H]2O[C@H](CO)[C@@H](O)[C@H](O)[C@H]2O)[C@H](O)[C@@H](O)[C@@H]1O [trehalose, a-D-glucopyranosyl a-D-glucopyranoside] | – | – | > 80 | Less than 0.5% | 522 | 699 | 28 | 15 | mitigated | 43 | 67 |
